# Assay results published in patent US9492471B2, “Methods of treating a disease or disorder associated with Bruton'S Tyrosine Kinase” (Celgene Avilomics Research, Inc., priority 2013, dated 2016).
# Read-outs that look alike come from different tables or passages of the source.
# Experiments:
# Assay in all cases: HotSpot kinase profiling
# Assay type in all cases: biochemical
# PAK4 = molecular target: T1, PAK4 (Homo sapiens, UniProt O96013)
# T1 construct: purchased Reaction Biology Corp
# Summary of the method: (§1)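 Radio-isotope P81 filtration format. Substrate + required cofactors in reaction buffer, kinase added, 2 h RT. Stop, wash with 0.1% phosphoric acid, detect. % inhibition vs DMSO; mean of duplicates where repeated.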
# ERBB2/HER2 = molecular target: T2, ERBB2/HER2 (Homo sapiens, UniProt P04626)
# T2 construct: purchased Reaction Biology Corp
# Summary of the method: as §1
# ASK1/MAP3K5 = molecular target: T3, ASK1/MAP3K5 (Homo sapiens, UniProt Q99683)
# T3 construct: purchased Reaction Biology Corp
# T3 sequence (Q99683 1-1374): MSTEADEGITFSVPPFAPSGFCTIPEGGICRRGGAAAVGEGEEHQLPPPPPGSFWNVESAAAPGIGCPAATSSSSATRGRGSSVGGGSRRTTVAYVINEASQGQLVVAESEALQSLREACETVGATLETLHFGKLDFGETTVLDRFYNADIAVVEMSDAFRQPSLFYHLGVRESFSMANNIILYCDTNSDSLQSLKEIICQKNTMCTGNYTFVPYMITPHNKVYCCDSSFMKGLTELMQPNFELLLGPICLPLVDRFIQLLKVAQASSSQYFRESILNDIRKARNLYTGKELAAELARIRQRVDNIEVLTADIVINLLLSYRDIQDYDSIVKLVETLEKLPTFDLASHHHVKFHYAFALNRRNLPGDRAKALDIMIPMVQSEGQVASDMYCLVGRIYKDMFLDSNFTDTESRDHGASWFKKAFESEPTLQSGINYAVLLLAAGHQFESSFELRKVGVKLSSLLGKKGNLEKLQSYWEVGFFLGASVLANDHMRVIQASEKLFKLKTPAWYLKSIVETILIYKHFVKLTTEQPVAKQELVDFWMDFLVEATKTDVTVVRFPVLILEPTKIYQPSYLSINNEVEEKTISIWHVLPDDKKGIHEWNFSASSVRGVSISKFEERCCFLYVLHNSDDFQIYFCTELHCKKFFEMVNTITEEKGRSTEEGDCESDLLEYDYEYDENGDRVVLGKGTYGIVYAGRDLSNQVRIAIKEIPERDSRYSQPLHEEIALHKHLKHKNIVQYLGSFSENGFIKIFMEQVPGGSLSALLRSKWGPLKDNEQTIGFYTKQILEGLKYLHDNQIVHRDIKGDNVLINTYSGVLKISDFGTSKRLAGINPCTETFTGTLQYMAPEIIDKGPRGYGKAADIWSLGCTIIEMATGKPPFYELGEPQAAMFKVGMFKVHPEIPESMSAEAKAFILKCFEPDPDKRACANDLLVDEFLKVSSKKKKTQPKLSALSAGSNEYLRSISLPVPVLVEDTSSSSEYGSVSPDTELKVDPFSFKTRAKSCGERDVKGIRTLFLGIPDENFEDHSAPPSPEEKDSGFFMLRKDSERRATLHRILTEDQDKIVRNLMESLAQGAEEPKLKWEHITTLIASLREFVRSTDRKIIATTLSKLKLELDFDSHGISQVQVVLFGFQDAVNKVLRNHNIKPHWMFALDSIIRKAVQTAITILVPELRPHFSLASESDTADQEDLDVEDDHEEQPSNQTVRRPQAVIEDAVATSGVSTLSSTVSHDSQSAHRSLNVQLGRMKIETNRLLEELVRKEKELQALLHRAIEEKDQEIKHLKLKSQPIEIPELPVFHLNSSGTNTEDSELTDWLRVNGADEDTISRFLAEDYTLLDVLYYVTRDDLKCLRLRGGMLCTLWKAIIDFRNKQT
# Summary of the method: as §1
# [1] = read-out: % Enzyme Activity (relative to DMSO controls) Run 1
# [2] = read-out: % Enzyme Activity (relative to DMSO controls) Run 2
# T1 sequence (O96013 whole entry): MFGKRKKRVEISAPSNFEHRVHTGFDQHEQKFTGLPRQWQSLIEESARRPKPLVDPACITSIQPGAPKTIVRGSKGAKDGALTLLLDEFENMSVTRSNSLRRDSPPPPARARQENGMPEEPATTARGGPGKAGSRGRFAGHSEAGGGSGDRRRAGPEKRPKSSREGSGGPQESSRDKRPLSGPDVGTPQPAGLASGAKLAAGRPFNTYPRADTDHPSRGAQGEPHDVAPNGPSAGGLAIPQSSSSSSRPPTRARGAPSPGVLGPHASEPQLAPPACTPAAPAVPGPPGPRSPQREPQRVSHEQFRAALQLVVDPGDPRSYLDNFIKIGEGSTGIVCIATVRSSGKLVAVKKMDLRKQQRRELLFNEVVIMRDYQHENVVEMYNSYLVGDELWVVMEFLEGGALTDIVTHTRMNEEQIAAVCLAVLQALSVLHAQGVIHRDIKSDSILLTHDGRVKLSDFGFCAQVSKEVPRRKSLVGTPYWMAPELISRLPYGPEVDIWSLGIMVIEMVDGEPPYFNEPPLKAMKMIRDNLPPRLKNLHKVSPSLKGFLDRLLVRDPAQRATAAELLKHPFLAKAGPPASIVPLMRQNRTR
# T2 sequence (P04626 23-1255): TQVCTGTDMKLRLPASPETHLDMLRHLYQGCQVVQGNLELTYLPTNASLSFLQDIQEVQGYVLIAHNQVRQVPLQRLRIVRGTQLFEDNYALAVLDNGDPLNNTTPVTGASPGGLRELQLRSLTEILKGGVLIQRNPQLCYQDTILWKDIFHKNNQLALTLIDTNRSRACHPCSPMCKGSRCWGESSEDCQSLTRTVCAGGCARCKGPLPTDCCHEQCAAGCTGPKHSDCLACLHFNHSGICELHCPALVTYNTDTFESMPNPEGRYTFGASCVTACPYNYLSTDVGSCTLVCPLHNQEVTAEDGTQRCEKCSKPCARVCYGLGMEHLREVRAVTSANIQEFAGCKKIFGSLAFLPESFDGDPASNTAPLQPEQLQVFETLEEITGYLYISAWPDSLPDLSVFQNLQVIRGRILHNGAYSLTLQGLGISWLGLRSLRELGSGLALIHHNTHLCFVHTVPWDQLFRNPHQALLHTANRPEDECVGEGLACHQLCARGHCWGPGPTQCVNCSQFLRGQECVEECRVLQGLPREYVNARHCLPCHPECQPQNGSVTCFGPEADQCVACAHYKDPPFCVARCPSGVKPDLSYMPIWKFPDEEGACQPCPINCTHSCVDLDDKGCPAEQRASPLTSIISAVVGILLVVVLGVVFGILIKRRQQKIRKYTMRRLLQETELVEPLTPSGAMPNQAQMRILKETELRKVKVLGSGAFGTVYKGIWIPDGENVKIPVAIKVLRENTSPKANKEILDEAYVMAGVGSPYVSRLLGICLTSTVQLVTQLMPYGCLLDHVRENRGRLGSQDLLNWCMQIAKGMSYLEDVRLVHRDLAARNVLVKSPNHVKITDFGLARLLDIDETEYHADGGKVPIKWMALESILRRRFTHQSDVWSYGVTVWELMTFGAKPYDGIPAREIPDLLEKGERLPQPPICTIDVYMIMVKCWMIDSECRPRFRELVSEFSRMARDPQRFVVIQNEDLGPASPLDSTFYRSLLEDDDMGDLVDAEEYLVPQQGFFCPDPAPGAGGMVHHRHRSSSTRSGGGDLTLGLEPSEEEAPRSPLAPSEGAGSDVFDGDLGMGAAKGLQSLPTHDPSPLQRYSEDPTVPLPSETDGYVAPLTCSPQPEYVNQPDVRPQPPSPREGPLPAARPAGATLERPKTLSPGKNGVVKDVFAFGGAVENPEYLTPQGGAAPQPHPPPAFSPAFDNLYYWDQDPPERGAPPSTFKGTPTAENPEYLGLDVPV
smiles,measurement,setting,value
C=CC(=O)Nc1cccc(Nc2nc(Nc3ccc(OCCOC)c(F)c3)ncc2F)c1 [Compound 2],inhibition at 3 µM,PAK4,2.45%
same,remaining activity at 3 µM,PAK4; [1],98.7%
same,remaining activity at 3 µM,PAK4; [2],96.4%
same,inhibition at 3 µM,ERBB2/HER2,61.3%
same,remaining activity at 3 µM,ERBB2/HER2; [1],39.8%
same,remaining activity at 3 µM,ERBB2/HER2; [2],37.5%
same,inhibition at 3 µM,ASK1/MAP3K5,-1.62%
same,remaining activity at 3 µM,ASK1/MAP3K5; [1],101%
same,remaining activity at 3 µM,ASK1/MAP3K5; [2],102%
